Tested on: MCF-7 cells
Assay: Microarray evaluation of estrogen-like activity (expression levels of estrogen-responsive genes/ESTs, Cy3/Cy5) in MCF-7 cells

Structure (SMILES): Clc1cc2c(cc1Cl)Oc1cc(Cl)c(Cl)cc1O2 [dioxin, 2,3,7,8-tetrachlorodibenzo-p-dioxin]
- evaluation value considering weighting factor (K): 32.90
- Σ(E(example)n), summation value of expression levels (10 nM treatment, n=1 to 203, independently determined): 207.49
- evaluation value = Σ[|log{BDE(A)n/BDE(Estrogen)n}|], n=1 to 203 (listed as example 2): 46.19
